Biological target: ROCK2 (Homo sapiens (Human), UniProt O75116)
Assay: Rho Kinase Inhibition Assay (IMAP fluorescence polarization)
Type: biochemical
Conditions: isolated enzyme, 10 μM ATP, 60 minutes at room temperature
Description: Following the preincubation, 10 μM ATP was added to initiate the reaction. After 60 minutes at room temperature, Molecular Devices IMAP™ binding solution was added to bind phosphorylated substrate. After 30 minutes of incubation in the presence of the IMAP™ beads the fluorescence polarization was read and the ratio was reported as mP. IC50 results were calculated using the Prism software from Graphpad.
See Tian et al., Arch. Ophthalmol. […] Ophthalmol. Vis. […] Ophthalmol. […] Cytoskel. […] Ophthalmol. Vis. […] Ophthalmol. Vis.

Chain of ROCK2 (O75116 11-552): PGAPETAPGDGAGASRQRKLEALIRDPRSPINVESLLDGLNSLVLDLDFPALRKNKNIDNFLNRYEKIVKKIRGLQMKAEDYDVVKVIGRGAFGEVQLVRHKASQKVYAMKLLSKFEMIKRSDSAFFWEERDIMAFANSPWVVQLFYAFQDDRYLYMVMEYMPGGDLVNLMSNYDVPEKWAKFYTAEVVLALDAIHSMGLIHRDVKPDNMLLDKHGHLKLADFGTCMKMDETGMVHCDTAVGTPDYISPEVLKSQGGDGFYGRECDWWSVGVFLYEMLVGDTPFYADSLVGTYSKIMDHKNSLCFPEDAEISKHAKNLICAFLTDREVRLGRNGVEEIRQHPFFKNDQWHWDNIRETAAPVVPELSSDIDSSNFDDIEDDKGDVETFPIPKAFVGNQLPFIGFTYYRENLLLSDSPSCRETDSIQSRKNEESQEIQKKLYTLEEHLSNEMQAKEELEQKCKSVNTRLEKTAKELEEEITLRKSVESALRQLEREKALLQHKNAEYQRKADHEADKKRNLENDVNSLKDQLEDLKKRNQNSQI

| SMILES | IC50 [nM] |
| --- | --- |
| Clc1ccc(CN2CCC(Nc3cccc4cnccc34)C2)cc1Cl (stereo not drawn) [Compound 2.016, N-(1-(3,4-dichlorobenzyl)pyrrolidin-3-yl)isoquinolin-5-amine] | 716 |
| c1cc(SC2CC2)ccc1CN1CCCC(Nc2ccc3[nH]ncc3c2)C1 (stereo not drawn) [Compound 1.026, N-(1-(4-(cyclopropylthio)benzyl)piperidin-3-yl)-1H-indazol-5-amine] | 2130 |
| c1cc(NC2CCCN(Cc3ccc(SC4CC4)cc3)C2)c2ccncc2c1 (stereo not drawn) [Compound 2.012, N-(1-(4-(cyclopropylthio)benzyl)piperidin-3-yl)isoquinolin-5-amine] | 14900 |
| CS(=O)(=O)Nc1cccc(CN2CC[C@H](Nc3cccc4cnccc34)C2)c1 [Compound 2.035, (S)-N-(3-((3-(isoquinolin-5-ylamino)pyrrolidin-1-yl)methyl)phenyl)methanesulfonamide] | 3240 |
| FC(F)(F)c1cccc(CN2CCC(Nc3cccc4cnccc34)C2)c1 (stereo not drawn) [Compound 2.018, N-(1-(3-(trifluoromethyl)benzyl)pyrrolidin-3-yl)isoquinolin-5-amine] | 632 |
| NC(=O)c1cccc(CN2CCCC(Nc3ccc4[nH]ncc4c3)C2)c1 (stereo not drawn) [Compound 1.055, 3-((3-(1H-indazol-5-ylamino)piperidin-1-yl)methyl)benzamide] | 472 |
| OCCn1ccc2cc(CN3CCCC(Nc4ccc5[nH]ncc5c4)C3)ccc21 (stereo not drawn) [Compound 1.114, 2-(5-((3-(1H-indazol-5-ylamino)piperidin-1-yl)methyl)-1H-indol-1-yl)ethanol] | 1490 |
| CSc1ccc(CN2CCCC(Nc3cccc4cnccc34)C2)cc1 (stereo not drawn) [Compound 2.009, N-(1-(4-(methylthio)benzyl)piperidin-3-yl)isoquinolin-5-amine] | 368 |
| c1ccc(CN2CCCC(Nc3cccc4cnccc34)CC2)cc1 (stereo not drawn) [Compound 2.013, N-(1-benzylazepan-4-yl)isoquinolin-5-amine] | 1490 |
| CC(C)Cc1ccc(CN2CCCC(Nc3ccc4[nH]ncc4c3)C2)cc1 (stereo not drawn) [Compound 1.013, N-(1-(4-isobutylbenzyl)piperidin-3-yl)-1H-indazol-5-amine] | 3660 |
| CCS(=O)(=O)Nc1cccc(CN2CCC[C@H](Nc3ccc4[nH]ncc4c3)C2)c1 [Compound 1.124, (S)-N-(3-((3-(1H-indazol-5-ylamino)piperidin-1-yl)methyl)phenyl)ethanesulfonamide] | 59.2 |
| CCOc1cccc(CN2CCCC(Nc3ccc4[nH]ncc4c3)C2)c1 (stereo not drawn) [Compound 1.065, N-(1-(3-ethoxybenzyl)piperidin-3-yl)-1H-indazol-5-amine] | 326 |
| OCCOc1cccc(CN2CC[C@@H](Nc3cccc4cnccc34)C2)c1 [Compound 2.039, (R)-2-(3-((3-(isoquinolin-5-ylamino)pyrrolidin-1-yl)methyl)phenoxy)ethanol] | 101 |
| CSc1ccc(CN2CCCC(Nc3ccc4[nH]ncc4c3)C2)cc1 (stereo not drawn) [Compound 1.008, N-(1-(4-(methylthio)benzyl)piperidin-3-yl)-1H-indazol-5-amine] | 65.8 |
| c1cc(CN2CCCC(Nc3cccc4cnccc34)C2)cc(C2CC2)c1 (stereo not drawn) [Compound 2.011, N-(1-(3-cyclopropylbenzyl)piperidin-3-yl)isoquinolin-5-amine] | 4090 |
| COc1ccc(CN2CCC(Nc3cccc4cnccc34)C2)cc1 (stereo not drawn) [Compound 2.017, N-(1-(4-methoxybenzyl)pyrrolidin-3-yl)isoquinolin-5-amine] | 322 |
| Cc1ccc(CN2CCC[C@H](Nc3ccc4[nH]ncc4c3)C2)cc1 [Compound 1.078, (S)-N-(1-(4-methylbenzyl)piperidin-3-yl)-1H-indazol-5-amine] | 63.1 |

| SMILES | IC50 [nM] |
| --- | --- |
| CCSc1ccc(CN2CCCC(Nc3ccc4[nH]ncc4c3)C2)cc1 (stereo not drawn) [Compound 1.017, N-(1-(4-(ethylthio)benzyl)piperidin-3-yl)-1H-indazol-5-amine] | 215 |
| CN(C)Cc1ccc(CN2CCCC(Nc3ccc4[nH]ncc4c3)C2)cc1 (stereo not drawn) [Compound 1.019, N-(1-(4-((dimethylamino)methyl)benzyl)piperidin-3-yl)-1H-indazol-5-amine] | 13400 |
| NC(=O)COc1cccc(CN2CC[C@@H](Nc3cccc4cnccc34)C2)c1 [Compound 2.040, (R)-2-(3-((3-(isoquinolin-5-ylamino)pyrrolidin-1-yl)methyl)phenoxy)acetamide] | 273 |
| OCCC#Cc1ccc(CN2CCCC(Nc3ccc4[nH]ncc4c3)C2)cc1 (stereo not drawn) [Compound 1.043, 4-(4-((3-(1H-indazol-5-ylamino)piperidin-1-yl)methyl)phenyl)but-3-yn-1-ol] | 11700 |
| c1cc2c(cc1CN1CCCC(Nc3ccc4[nH]ncc4c3)C1)OCCO2 (stereo not drawn) [Compound 1.053, N-(1-((2,3-dihydrobenzo[b][1,4]dioxin-6-yl)methyl)piperidin-3-yl)-1H-indazol-5-amine] | 189 |
| NS(=O)(=O)c1cccc(CN2CCCC(Nc3ccc4[nH]ncc4c3)C2)c1 (stereo not drawn) [Compound 1.056, 3-((3-(1H-indazol-5-ylamino)piperidin-1-yl)methyl)benzenesulfonamide] | 435 |
| CC(C)(C)OC(=O)Cn1ccc2cc(CN3CCCC(Nc4ccc5[nH]ncc5c4)C3)ccc21 (stereo not drawn) [Compound 1.112, tert-butyl 2-(5-((3-(1H-indazol-5-ylamino)piperidin-1-yl)methyl)-1H-indol-1-yl)acetate] | 2030 |
| CS(=O)(=O)c1ccc(CN2CCCC(Nc3ccc4[nH]ncc4c3)C2)cc1 (stereo not drawn) [Compound 1.001, N-(1-(4-(methylsulfonyl)benzyl)piperidin-3-yl)-1H-indazol-5-amine] | 358 |
| CS(=O)(=O)Cc1ccc(CN2CCCC(Nc3ccc4[nH]ncc4c3)C2)cc1 (stereo not drawn) [Compound 1.029, N-(1-(4-(methylsulfonylmethyl)benzyl)piperidin-3-yl)-1H-indazol-5-amine] | 11700 |
| CS(=O)(=O)Nc1cccc(CN2CCC[C@@H](Nc3cccc4cnccc34)C2)c1 [Compound 2.033, (R)-N-(3-((3-(isoquinolin-5-ylamino)piperidin-1-yl)methyl)phenyl)methanesulfonamide] | 3060 |
| c1cc2ccc(CN3CCCC(Nc4ccc5[nH]ncc5c4)C3)cc2[nH]1 (stereo not drawn) [Compound 1.082, N-(1-((1H-indol-6-yl)methyl)piperidin-3-yl)-1H-indazol-5-amine] | 30.4 |
| Nc1cc(CN2CCCC(Nc3ccc4[nH]ncc4c3)C2)ccc1Cl (stereo not drawn) [Compound 1.089, N-(1-(3-amino-4-chlorobenzyl)piperidin-3-yl)-1H-indazol-5-amine] | 29.4 |
| OC[C@H](O)COc1cccc(CN2CCC[C@@H](Nc3ccc4[nH]ncc4c3)C2)c1 [Compound 1.113, (S)-3-(3-(((R)-3-(1H-indazol-5-ylamino)piperidin-1-yl)methyl)phenoxy)propane-1,2-diol] | 859 |
| Oc1cc(CN2CCCC(Nc3ccc4[nH]ncc4c3)C2)ccc1I (stereo not drawn) [Compound 1.068, 5-((3-(1H-indazol-5-ylamino)piperidin-1-yl)methyl)-2-iodophenol] | 660 |
| CS(=O)(=O)c1ccc(CN2CCC(Nc3cccc4cnccc34)C2)cc1 (stereo not drawn) [Compound 2.005, N-(1-(4-(methylsulfonyl)benzyl)pyrrolidin-3-yl)isoquinolin-5-amine] | 1780 |
| OCCOc1ccc(CN2CCCC(Nc3ccc4[nH]ncc4c3)C2)cc1 (stereo not drawn) [Compound 1.018, 2-(4-((3-(1H-indazol-5-ylamino)piperidin-1-yl)methyl)phenoxy)ethanol] | 2410 |

Source: patent publication US8604218B2, “Cytoskeletal active rho kinase inhibitor compounds, composition and use” (Inspire Pharmaceuticals, Inc., priority 2006, dated 2013)
